Results published in ChEMBL document CHEMBL6134930, “Discovery of AB801, a Potent and Selective Inhibitor of AXL Receptor Tyrosine Kinase for Use in Cancer Therapy” (J Med Chem, 2025).
pIC50: −log10 of the molar value. Calls of active or inactive are those of the source. No cut-off for these calls is given here.

Tests used:
[1] = Selectivity ratio, ratio of Ki for TRKA (unknown origin) to Ki for AXL (unknown origin)
[2] = target: CYP2D6 (Homo sapiens, UniProt P10635); test: Time dependent inhibition of CYP2D6 (unknown origin) at 30 uM measured after 30 mins relative to control; format: ADME; settings: read-out: TDI
Sequence of CYP2D6 (P10635 whole entry): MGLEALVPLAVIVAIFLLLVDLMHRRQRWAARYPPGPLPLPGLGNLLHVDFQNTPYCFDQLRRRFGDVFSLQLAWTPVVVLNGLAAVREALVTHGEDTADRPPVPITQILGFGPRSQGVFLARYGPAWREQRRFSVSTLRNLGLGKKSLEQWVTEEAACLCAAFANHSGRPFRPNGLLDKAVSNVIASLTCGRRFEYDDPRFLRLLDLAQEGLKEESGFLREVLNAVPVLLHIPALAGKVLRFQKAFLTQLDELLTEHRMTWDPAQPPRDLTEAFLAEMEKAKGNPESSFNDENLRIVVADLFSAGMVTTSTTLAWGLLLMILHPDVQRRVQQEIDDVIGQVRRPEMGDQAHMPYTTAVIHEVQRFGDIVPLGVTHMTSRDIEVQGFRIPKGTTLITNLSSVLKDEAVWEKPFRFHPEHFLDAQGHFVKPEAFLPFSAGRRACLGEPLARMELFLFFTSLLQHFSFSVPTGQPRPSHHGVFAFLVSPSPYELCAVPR

[3] = Toxicity in mouse xenografted with human 786-0 cells assessed as body weight in presence of sunitinib at 30 mg/kg, po once daily for 15 days; format: organism-based; settings: in vivo, 360 h, time 15 day
[4] = target: Cytochrome P450 3A4 (Homo sapiens, UniProt P08684); test: Inhibition of CYP3A4 (unknown origin) using midazolam as substrate measured after 30 mins; format: ADME
Sequence of Cytochrome P450 3A4 (P08684 whole entry): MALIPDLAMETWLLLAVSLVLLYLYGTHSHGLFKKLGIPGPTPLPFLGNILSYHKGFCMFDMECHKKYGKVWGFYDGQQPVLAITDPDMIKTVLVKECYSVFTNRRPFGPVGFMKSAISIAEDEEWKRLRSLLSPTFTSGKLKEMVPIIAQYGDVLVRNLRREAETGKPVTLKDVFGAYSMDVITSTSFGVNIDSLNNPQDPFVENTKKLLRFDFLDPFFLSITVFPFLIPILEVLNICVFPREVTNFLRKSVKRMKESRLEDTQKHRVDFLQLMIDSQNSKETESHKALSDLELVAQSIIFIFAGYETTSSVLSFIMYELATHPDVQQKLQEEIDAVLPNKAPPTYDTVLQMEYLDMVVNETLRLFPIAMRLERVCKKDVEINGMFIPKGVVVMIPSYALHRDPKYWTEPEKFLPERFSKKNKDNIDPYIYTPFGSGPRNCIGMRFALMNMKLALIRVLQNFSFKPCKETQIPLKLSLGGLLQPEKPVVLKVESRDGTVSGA

[5] = Toxicity in mouse xenografted with human 786-0 cells assessed as body weight in presence of sunitinib at 10 mg/kg, po once daily for 15 days; format: organism-based; settings: in vivo, 360 h, time 15 day
[6] = Cmax in human (healthy individuals) at 30 mg, single oral dose measured uo to 120 hrs; format: ADME; settings: in vivo
[7] = Selectivity ratio, ratio of Ki for MERTK (unknown origin) to Ki for AXL (unknown origin)
[8] = Clearance in Beagle dog at 0.5 mg/kg, iv measured up to 24 hrs by LC-MS/MS analysis; format: ADME, organism-based, Canis lupus familiaris; settings: in vivo
[9] = Toxicity in mouse xenografted with human 786-0 cells assessed as body weight at 30 mg/kg, po once daily for 15 days; format: organism-based; settings: in vivo, 360 h, time 15 day
[10] = tested on: 786-0; test: Anti-tumor activity against human 786-0 cells xenografted in mouse model assessed as reduction in tumor volume in presence of sunitinib at 30 mg/kg, po once daily for 15 days; format: functional, organism-based; settings: time 15.0 day
[11] = Cmax in human (healthy individuals) at 90 mg, single oral dose measured uo to 120 hrs; format: ADME; settings: in vivo
[12] = Metabolic stability in human hepatocytes assessed as intrinsic clearance measured per 10^6 cells; format: ADME, cell-based, Hepatocyte; settings: read-out: CLH
[13] = Half life in human (healthy individuals) at 270 mg, single oral dose; format: ADME; settings: in vivo
[14] = target: Cytochrome P450 2D6 (Homo sapiens, UniProt P10635); test: Inhibition of CYP2D6 (unknown origin) measured after 30 mins; format: ADME
Sequence of Cytochrome P450 2D6 (P10635 whole entry): as the sequence (P10635 whole entry) above

[15] = AUC (0 to 120 hrs) in human (healthy individuals) at 10 mg, single oral dose; format: ADME; settings: in vivo
[16] = Cmax in human (healthy individuals) at 10 mg, single oral dose measured uo to 120 hrs; format: ADME; settings: in vivo
[17] = Metabolic stability in rat hepatocytes assessed as intrinsic clearance measured per 10^6 cells; format: ADME, cell-based, Hepatocyte; settings: read-out: CLH
[18] = tested on: 786-0; test: Anti-tumor activity against human 786-0 cells xenografted in mouse model assessed as tumor growth inhibition in presence of sunitinib at 10 mg/kg, po once daily for 15 days; format: functional, organism-based; settings: time 15.0 day
[19] = Tmax in human (healthy individuals) at 270 mg, single oral dose; format: ADME; settings: in vivo
[20] = Apparent permeability of compound from apical to basolateral side in human Caco-2 cells; format: ADME, cell-based; settings: read-out: permeability
[21] = AUC (0 to 120 hrs) in human (healthy individuals) at 90 mg, single oral dose; format: ADME; settings: in vivo
[22] = Tmax in human (healthy individuals) at 10 mg, single oral dose; format: ADME; settings: in vivo
[23] = target: hERG (KCNH2) (Homo sapiens, UniProt Q12809); test: Inhibition of hERG at 10 uM by high throughput cell based patch clamp assay; format: toxicity
Sequence of hERG (KCNH2) (Q12809 whole entry): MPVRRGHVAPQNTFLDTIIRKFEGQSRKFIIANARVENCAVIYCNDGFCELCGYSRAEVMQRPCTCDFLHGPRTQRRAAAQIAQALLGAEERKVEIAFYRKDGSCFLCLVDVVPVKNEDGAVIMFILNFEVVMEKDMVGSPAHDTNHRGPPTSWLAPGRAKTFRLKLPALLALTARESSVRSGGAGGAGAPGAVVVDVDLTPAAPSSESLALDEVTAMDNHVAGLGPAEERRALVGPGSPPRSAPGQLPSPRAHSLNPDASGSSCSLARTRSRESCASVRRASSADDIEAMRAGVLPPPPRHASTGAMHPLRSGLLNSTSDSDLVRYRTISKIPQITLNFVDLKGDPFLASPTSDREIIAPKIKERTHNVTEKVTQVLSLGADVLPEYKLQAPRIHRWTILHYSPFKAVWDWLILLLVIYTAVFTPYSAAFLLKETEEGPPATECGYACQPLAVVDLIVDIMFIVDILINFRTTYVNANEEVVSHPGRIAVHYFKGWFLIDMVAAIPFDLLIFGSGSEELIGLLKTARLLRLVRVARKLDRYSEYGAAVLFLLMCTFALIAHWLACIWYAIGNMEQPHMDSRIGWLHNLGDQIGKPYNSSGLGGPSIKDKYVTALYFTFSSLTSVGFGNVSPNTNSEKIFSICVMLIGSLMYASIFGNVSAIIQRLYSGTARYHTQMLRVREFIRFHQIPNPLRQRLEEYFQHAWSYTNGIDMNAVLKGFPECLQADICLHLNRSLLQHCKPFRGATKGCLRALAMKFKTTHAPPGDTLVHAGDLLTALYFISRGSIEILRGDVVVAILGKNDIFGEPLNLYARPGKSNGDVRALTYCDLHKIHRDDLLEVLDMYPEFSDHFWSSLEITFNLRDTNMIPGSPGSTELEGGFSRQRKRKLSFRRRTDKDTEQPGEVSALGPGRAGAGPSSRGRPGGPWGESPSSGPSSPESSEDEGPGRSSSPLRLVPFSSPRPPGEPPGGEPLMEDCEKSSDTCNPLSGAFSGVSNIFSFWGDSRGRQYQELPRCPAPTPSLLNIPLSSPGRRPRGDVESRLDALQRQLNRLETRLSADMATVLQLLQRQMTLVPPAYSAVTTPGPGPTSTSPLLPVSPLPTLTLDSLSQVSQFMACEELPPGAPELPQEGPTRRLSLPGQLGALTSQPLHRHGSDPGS

[24] = target: T1, Cytochrome P450 1A2 (Homo sapiens, UniProt P05177); test: Inhibition of CYP1A2 (unknown origin) measured after 30 mins; format: ADME
T1 sequence (P05177 whole entry): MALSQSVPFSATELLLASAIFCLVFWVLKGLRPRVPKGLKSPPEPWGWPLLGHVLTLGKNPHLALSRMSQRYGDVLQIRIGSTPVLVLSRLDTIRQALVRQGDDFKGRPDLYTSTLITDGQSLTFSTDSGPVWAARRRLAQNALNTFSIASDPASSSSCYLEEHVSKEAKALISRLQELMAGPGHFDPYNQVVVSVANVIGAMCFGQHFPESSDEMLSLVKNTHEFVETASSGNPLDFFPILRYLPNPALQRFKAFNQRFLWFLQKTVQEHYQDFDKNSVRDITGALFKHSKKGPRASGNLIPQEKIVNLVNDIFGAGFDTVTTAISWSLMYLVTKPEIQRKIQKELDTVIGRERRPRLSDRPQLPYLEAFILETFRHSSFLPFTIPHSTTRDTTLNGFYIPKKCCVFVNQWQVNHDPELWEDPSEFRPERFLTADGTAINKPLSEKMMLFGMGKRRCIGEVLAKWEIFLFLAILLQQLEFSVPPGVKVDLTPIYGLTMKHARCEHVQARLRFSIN

[25] = Tmax in human (healthy individuals) at 90 mg, single oral dose; format: ADME; settings: in vivo

For Cc1cccnc1-c1ccc(-c2n[nH]c3ncc(-c4ccc5c(c4)CC[C@@H](N4C6COCC4C6)CC5)cc23)nc1, the Ratio Ki [1] was 330, the inhibition at 0.5 h, 30 µM [2] was 0% and the Activity [3] was “Non-toxic”. For the same compound, the pIC50 [4] was 4.77, the Activity [5] was “Non-toxic” and the Cmax [6] was 12 ng/mL. The Ratio Ki [7] was 880, the clearance [8] was 25 mL/min/kg and the Activity [9] was “Non-toxic”. The Activity [10] was “Active”, the Cmax [11] was 40 ng/mL and the hepatocyte CLint [12] was 1.8 µL/min/1e6 cells. For the same compound, the half-life [13] was 2400 min, the pIC50 [14] was 4.96 and the AUC(0-t) [15] was 180 ng·h/mL. For the same compound, the Cmax [16] was 3 ng/mL, the hepatocyte CLint [17] was 20 µL/min/1e6 cells and the Activity [18] was “Active”. It also gave a Tmax [19] of 8 h, a Papp A→B [20] of 1.7 ×10⁻⁶ cm/s and an AUC(0-t) [21] of 2090 ng·h/mL. It also gave a Tmax [22] of 6 h, an inhibition at 10 µM [23] of 56% and a pIC50 [24] of under 4.00. It also gave a Tmax [25] of 8 h.
